From US20230051589A1, “COMPOUNDS AND COMPOSITIONS FOR TREATING CONDITIONS ASSOCIATED WITH NLRP ACTIVITY” (Novartis AG, priority 2018, published 2023)

system: IL-1β production in PMA-differentiated THP-1 cells; assay: IL-1β production in PMA-differentiated THP-1 cells stimulated with gramicidin (hTHP-1 assay, 2% fetal bovine serum; Procedures 1-3); format: cell-based, human; settings: Homo sapiens, THP-1, Table B1; hTHP-1 assay containing 2% fetal bovine serum, gramicidin stimulation, IL-1β readout; read-out: hTHP-1 IC50 (average)
Summary of the method: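 IL-1β released into supernatants was read by HTRF after 2 h gramicidin (5 μM) challenge. Before challenge, compounds (3-fold dilutions, top 100 μM, 0.37% DMSO) were given 1 h on THP-1 cells differentiated with PMA (20 ng/ml, 16-18 h) and held in 2% FBS medium.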

Which IC50 does the source give for `Cc1oc(S(N)(=O)=NC(=O)Nc2c3c(cc4c2CCC4C)CCC3)cc1C(C)(C)O` (single isomer, unassigned) [Example 125] here?
The IC50 was 40 to 200 nM.

same assay, conditions: Homo sapiens, THP-1, Table B3; hTHP-1 assay containing 2% fetal bovine serum, gramicidin stimulation, IL-1β readout; read-out: hTHP-1 IC50

Which IC50 does the source give for `CN1CCC(c2ccc(S(N)(=O)=NC(=O)Nc3c4c(cc5c3CCC5)CCC4)c(F)c2)C1` (centres unmarked) [compound 776, 2-Fluoro-N′-((1,2,3,5,6,7-hexahydro-s-indacen-4-yl)carbamoyl)-4-(1-methylpyrrolidin-3-yl)benzenesulfonimidamide] here?
The IC50 was 5000 to 30000 nM.

For `CC(C)(O)c1cccc(S(N)(=O)=NC(=O)Nc2c3c(cc4c2CCC4)CCC3)n1` (centres unmarked) [Example 763, N′-((1,2,3,5,6,7-hexahydro-s-indacen-4-yl)carbamoyl)-6-(2-hydroxypropan-2-yl)pyridine-2-sulfonimidamide], which IC50 is on record?
The IC50 was 1000 to 5000 nM.

How did the IC50 turn out when `C[C@](O)(COCCOCCOCCOCCOCc1ccccc1)c1ncc(S(N)(=O)=NC(=O)Nc2c3c(cc4c2CCC4)CCC3)s1` (stereo partly drawn) [Example 761, N-((1,2,3,5,6,7-hexahvdro-s-indacen-4-yl)carbamoyl)-2-((S)-16-hydroxy-1-phenyl-2,5,8,11,14-pentaoxaheptadecan-16-yl)thiazole-5-sulfonimidamide] was run?
Its IC50 is 200 to 1000 nM.

With `CC(C)c1cnc(S(N)(=O)=NC(=O)Nc2c3c(cc4c2CCC4)CCC3)c(F)c1` (centres unmarked) [Example 765, 3-Fluoro-N'-((1,2,3,5,6,7-hexahydro-s-indacen-4-yl)carbamoyl)-5-isopropylpyridine-2-sulfonimidamide] as the compound, how does the IC50 read?
The IC50 was 1000 to 5000 nM.

`NS(=O)(=NC(=O)Nc1c2c(cc3c1CCC3)CCC2)c1sc(C(O)(CO)CO)nc1CO` (centres unmarked) [Example 733, N′-((1,2,3,5,6,7-hexahydro-s-indacen-4-yl)carbamoyl)-4-(hydroxymethyl)-2-(1,2,3-trihydroxypropan-2-yl)thiazole-5-sulfonimidamide] was tested. Which IC50 did it give?
The IC50 was 40 to 200 nM.

For `NS(=O)(=NC(=O)Nc1c2c(cc3c1CCC3)CCC2)c1cc2c(s1)CCNC2` (centres unmarked) [Example 724, N′-((1,2,3,5,6,7-hexahydro-s-indacen-4-yl)carbamoyl)-4,5,6,7-tetrahydrothieno[3,2-c]pyridine-2-sulfonimidamide], which IC50 is on record?
The IC50 was 40 to 200 nM.

`COC1CCc2c(csc2S(N)(=O)=NC(=O)Nc2c3c(cc4c2CCC4)CCC3)C1` (centres unmarked) [Example 774, N′-((1,2,3,5,6,7-hexahydro-s-indacen-4-yl)carbamoyl)-5-methoxy-4,5,6,7-tetrahydrobenzo[c]thiophene-1-sulfonimidamide] was tested. Which IC50 did it give?
The IC50 was 1000 to 5000 nM.

same assay, conditions: Homo sapiens, THP-1, hTHP-1 assay containing 2% fetal bovine serum, Table B2, class symbols; read-out: IC50

For `C[C@@](O)(CO)c1ncc(S(N)(=O)=NC(=O)Nc2c3c(cc4c2C(=O)CC4)CCC3)s1` (some centres unmarked) [Compound 920d], which IC50 is on record?
The IC50 was 200 to 1000 nM.

Which IC50 does the source give for `C[C@](O)(CO)c1ncc(S(N)(=O)=NC(=O)Nc2c3c(cc4c2C(=O)CC4)CCC3)s1` (some centres unmarked) [Compound 920c] here?
Its IC50 is 40 to 200 nM.

Which IC50 does the source give for `C/C=C/c1c2c(c(NC(=O)N=S(N)(=O)c3cc(C(C)(C)O)n(-c4ccccc4)n3)c3c1CCC3)CCC2` (centres unmarked) [Example 459, (E)-5-(2-hydroxypropan-2-yl)-1-phenyl-N′-((8-(prop-1-en-1-yl)-1,2,3,5,6,7-hexahydro-s-indacen-4-yl)carbamoyl)-1H-pyrazole-3-sulfonimidamide] here?
Its IC50 is 1000 to 5000 nM.

How did the IC50 turn out when `CN(C)CCN(C)Cc1cccc(S(N)(=O)=NC(=O)Nc2c3c(cc4c2CCC4)CCC3)c1` (centres unmarked) [Example 506, 3-(((2-(Dimethylamino)ethyl) (methyl)amino)methyl)-N′-((1,2,3,5,6,7-hexahydro-s-indacen-4-yl)carbamoyl)benzenesulfonimidamide] was run?
Its IC50 is 5000 to 30000 nM.

`N[S@@](=O)(=NC(=O)Nc1c2c(cc3c1CCC3)CCC2)c1ccc(C2CCNC2)cc1F` (single isomer, unassigned) [Example 502, (R) or (S)-2-fluoro-N′-((1,2,3,5,6,7-hexahydro-s-indacen-4-yl)carbamoyl)-4-(pyrrolidin-3-yl)benzenesulfonimidamide] was tested. Which IC50 did it give?
The IC50 was 200 to 1000 nM.

For `CC(C)(O)c1cc(F)c(S(N)(=O)=NC(=O)Nc2c3c(cc4c2CCC4=O)CCC3)s1` (centres unmarked) [Example 438, 3-Fluoro-5-(2-hydroxypropan-2-yl)-N′-((1-oxo-1,2,3,5,6,7-hexahydro-s-indacen-4-yl)carbamoyl)thiophene-2-sulfonimidamide], which IC50 is on record?
The IC50 was 200 to 1000 nM.

With `C[C@@](O)(CO)c1ncc([S@](N)(=O)=NC(=O)Nc2c3c(cc4c2CCC4)CCC3)s1` [Example 714, (R)-2-((R)-1,2-dihydroxypropan-2-yl)-N-((1,2,3,5,6,7-hexahydro-s-indacen-4-yl)carbamoyl)thiazole-5-sulfonimidamide] as the compound, how does the IC50 read?
The IC50 was 8 to 40 nM.

For `CC(C)(O)c1nc(CO)c([S@](N)(=O)=NC(=O)Nc2c3c(cc4c2C(=O)CC4)CCC3)s1` [Compound 914b], which IC50 is on record?
Its IC50 is 1000 to 5000 nM.

How did the IC50 turn out when `C[C@@](O)(CO)c1ncc(S(N)(=O)=NC(=O)Nc2c3c(cc4c2CC4)CCC3)s1` (some centres unmarked) [Compound 919c] was run?
Its IC50 is 8 to 40 nM.

same assay, conditions: Homo sapiens, THP-1, hTHP-1 assay containing 2% fetal bovine serum, Table B2, given as bound; read-out: IC50

For `CN(C)CC(C)(C)c1ccc([S@](N)(=O)=NC(=O)Nc2c3c(cc4c2CCC4)CCC3)cc1` [Compound 902a], which IC50 is on record?
Its IC50 is over 30000 nM.

same assay, conditions: Table B3; hTHP-1 assay containing 2% fetal bovine serum, gramicidin stimulation, IL-1β readout; read-out: hTHP-1 IC50

Which IC50 does the source give for `CNS(=O)(=O)c1cccc(S(N)(=O)=NC(=O)Nc2c3c(cc4c2CCC4)CCC3)c1` (single isomer, unassigned) [Example 791, (R) or (S)-3-(N′-((1,2,3,5,6,7-hexahydro-5-indacen-4-yl)carbamoyl)sulfamidimidoyl)-N-methylbenzenesulfonamide] here?
The IC50 was 200 to 1000 nM.

How did the IC50 turn out when `NS(=O)(=NC(=O)Nc1c2c(cc3c1CCC3)CCC2)c1cc2c(s1)CCOC2` (single isomer, unassigned) [Example 789, (R) or (S)-N′-((1,2,3,5,6,7-hexahydro-5-indacen-4-yl)carbamoyl)-6,7-dihydro-4H-thieno[3,2-c]pyran-2-sulfonimidamide] was run?
The IC50 was 200 to 1000 nM.

`CCn1ccc(S(N)(=O)=NC(=O)Nc2c3c(cc4c2CCC4)CCC3)n1` (single isomer, unassigned) [Example 814, (S) or (R)-1-ethyl-N′-((1,2,3,5,6,7-hexahydro-s-indacen-4-yl)carbamoyl)-1H-pyrazole-3-sulfonimidamide] was tested. Which IC50 did it give?
Its IC50 is 1000 to 5000 nM.

Which IC50 does the source give for `CC(C)n1nc(S(N)(=O)=NC(=O)Nc2c3c(cc4c2C(=O)CC4)CCC3)cc1C(C)(C)O` (single isomer, unassigned) [Example 805, (R) or (S)-5-(2-hydroxypropan-2-yl)-1-isopropyl-N′-((3-oxo-1,2,3,5,6,7-hexahydro-s-indacen-4-yl)carbamoyl)-1H-pyrazole-3-sulfonimidamide] here?
Its IC50 is 200 to 1000 nM.

Which IC50 does the source give for `NS(=O)(=NC(=O)Nc1c2c(cc3c1CCC3)CCC2)c1cc2c(s1)CCNC2` (single isomer, unassigned) [Example 788, (S) or (R)-N′-((1,2,3,5,6,7-hexahydro-5-indacen-4-yl)carbamoyl)-4,5,6,7-tetrahydrothieno[3,2-c]pyridine-2-sulfonimidamide] here?
The IC50 was 200 to 1000 nM.

same assay, conditions: hTHP-1 assay containing 2% fetal bovine serum, Table B2, class symbols; read-out: IC50

With `CC(C)(O)c1cnc(S(N)(=O)=NC(=O)Nc2c3c(cc4c2CCC4=O)CCC3)s1` (centres unmarked) [Example 680, 5-(2-Hydroxypropan-2-yl)-N′-((1-oxo-1,2,3,5,6,7-hexahydro-s-indacen-4-yl)carbamoyl)thiazole-2-sulfonimidamide] as the compound, how does the IC50 read?
The IC50 was 8 to 40 nM.

With `CN(C)C(c1ccc(S(N)(=O)=NC(=O)Nc2c3c(cc4c2CCC4)CCC3)cc1)C(F)(F)F` (single isomer, unassigned) [Example 667, (S,R) or (R,R)-4-(1-(dimethylamino)-2,2,2-trifluoroethyl)-N′-((1,2,3,5,6,7-hexahydro-s-indacen-4-yl)carbamoyl) benzenesulfonimidamide] as the compound, how does the IC50 read?
Its IC50 is 200 to 1000 nM.

How did the IC50 turn out when `CNC(C)(C)c1ccc(S(N)(=O)=NC(=O)Nc2c3c(cc4c2CCC4)CCC3)cc1` (single isomer, unassigned) [Example 603, (R) or (S)-N′-((1,2,3,5,6,7-hexahydro-s-indacen-4-yl)carbamoyl)-4-(2-(methylamino)propan-2-yl) benzenesulfonimidamide] was run?
Its IC50 is 5000 to 30000 nM.

Which IC50 does the source give for `CC(C)(O)c1csc(S(N)(=O)=NC(=O)Nc2c3c(cc4c2CCC4=O)CCC3)c1` (single isomer, unassigned) [Example 599, (S) or (R)-4-(2-hydroxypropan-2-yl)-N′-((1-oxo-1,2,3,5,6,7-hexahydro-s-indacen-4-yl)carbamoyl) thiophene-2-sulfonimidamide] here?
The IC50 was 5000 to 30000 nM.

With `CC(O)(CO)c1cc(F)c(S(N)(=O)=NC(=O)Nc2c3c(c(C#N)c4c2CCC4)CCC3)s1` [Example 631, (R,S) and (S,S)-N′-((8-cyano-1,2,3,5,6,7-hexahydro-s-indacen-4-yl)carbamoyl)-5-(1,2-dihydroxypropan-2-yl)-3-fluorothiophene-2-sulfonimidamide] as the compound, how does the IC50 read?
Its IC50 is 1000 to 5000 nM.

For `NS(=O)(=NC(=O)Nc1c2c(cc3c1CCC3)CCC2)c1cnn2c1OCCC2` (single isomer, unassigned) [Example 569, (R) or (S)-N′-((1,2,3,5,6,7-hexahydro-s-indacen-4-yl)caramoyl)-6,7-dihydro-5H-pyrazolo[5,1 - b][1,3]oxazine-3-sulfonimidamide], which IC50 is on record?
Its IC50 is 40 to 200 nM.

`CNCc1csc(S(N)(=O)=NC(=O)Nc2c3c(cc4c2CCC4)CCC3)c1` (single isomer, unassigned) [Example 691, (R) or (S)-N′-((1,2,3,5,6,7-hexahydro-s-indacen-4-yl)carbamoyl)-4-((methylamino)methyl)thiophene-2-sulfonimidamide] was tested. Which IC50 did it give?
The IC50 was 40 to 200 nM.

same assay, conditions: hTHP-1 assay containing 2% fetal bovine serum, Table B2, given as bound; read-out: IC50

For `N[S@](=O)(=NC(=O)Nc1c2c(cc3c1CCC3)CCC2)c1ccc(OC(F)F)cc1` (single isomer, unassigned) [Example 577, (S) or (R)-4-(difluoromethoxy)-N′-((1,2,3,5,6,7-hexahydro-s-indacen-4-yl)carbamoyl) benzenesulfonimidamide], which IC50 is on record?
The IC50 was over 30000 nM.
